*: point of attachment. AMC = Cc1cc(=O)oc2cc(N*)ccc12; Boc = CC(C)(C)OC(=O)*; OBn = c1ccc(CO*)cc1
Assays:
Type in all cases: biochemical
[1] = target: T1, enzyme solution treated with trypsin beads (purified signal-FLAG-ARS-extracellular protein) (Homo sapiens, UniProt Q7Z410, INS90FVSSFQKTELEASCVGCSVLNYRDGNSSVLVHFQ); experiment: Substrate cleavage activity of purified protein solution treated with trypsin beads; details: substrate 400 μM, ammonium hydrogen carbonate buffer, 37° C. for one hour
T1 construct: FLAG (N); made in house; host or cells: HEK293-EBNA
T1 sequence (Q7Z410 with tags, fused parts or gaps): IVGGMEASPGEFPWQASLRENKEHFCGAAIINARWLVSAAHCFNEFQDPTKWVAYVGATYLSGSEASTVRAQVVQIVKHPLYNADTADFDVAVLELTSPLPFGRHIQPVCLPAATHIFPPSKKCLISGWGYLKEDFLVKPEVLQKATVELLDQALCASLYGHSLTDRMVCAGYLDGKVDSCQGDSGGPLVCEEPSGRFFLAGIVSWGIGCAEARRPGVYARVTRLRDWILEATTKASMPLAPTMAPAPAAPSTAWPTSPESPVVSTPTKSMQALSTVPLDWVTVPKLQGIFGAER
T1 sequence (Q7Z410 with tags, fused parts or gaps INS90FVSSFQKTELEASCVGCSVLNYRDGNSSVLVHFQ): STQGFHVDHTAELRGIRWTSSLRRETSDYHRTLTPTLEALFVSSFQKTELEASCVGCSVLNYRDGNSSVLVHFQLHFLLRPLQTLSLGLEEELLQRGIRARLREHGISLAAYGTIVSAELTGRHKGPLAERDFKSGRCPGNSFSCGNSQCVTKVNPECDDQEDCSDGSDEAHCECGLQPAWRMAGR
Description: By the same method as in Example 9, an enzyme solution treated with trypsin beads was obtained, using the purified protein solution. Then, the substrate cleavage activity of the enzyme solution was measured by the same method as in Example 8. Specifically, synthetic peptide substrates were diluted in ammonium hydrogen carbonate buffer to become a final concentration of 400 μM in a 96-well plate. After the enzyme solution described above was mixed into the resulting diluted substrates, the mixture were incubated at 37° C. for one hour. Subsequently, the fluorescence of AMC released from the synthetic peptide by enzymatic cleavage were measured.

[2] = target: T2, purified protein solution (signal-FLAG-ARS-extracellular protein) (Homo sapiens, UniProt Q7Z410, INS90FVSSFQKTELEASCVGCSVLNYRDGNSSVLVHFQ); experiment: Enzyme activity of purified recombinant protein using synthetic peptides; details: substrate 200 μM or 400 μM, ammonium hydrogen carbonate buffer, 37° C. for one hour; versus buffer control
T2 construct: made in house; host or cells: HEK293-EBNA
T2 sequence (Q7Z410 with tags, fused parts or gaps INS90FVSSFQKTELEASCVGCSVLNYRDGNSSVLVHFQ): T1 sequence (Q7Z410 with tags, fused parts or gaps INS90FVSSFQKTELEASCVGCSVLNYRDGNSSVLVHFQ)
T2 sequence (Q7Z410 with tags, fused parts or gaps): T1 sequence (Q7Z410 with tags, fused parts or gaps)
Description: Using a cell expressing the signal-FLAG-ARS-extracellular protein, a recombinant protein secreted into the liquid culture of the cell was extracted and purified. Specifically, the transfected HEK293EBNA cells were incubated by the same method as in Example 7 to about 80% confluence, from which the culture medium was then removed. Instead, a culture medium containing 4% serum was added, for further incubation under conditions of 37° C. and a carbon dioxide concentration of 5% for another 4 days. The culture supernatant was recovered 4 days later; filtered through a 0.22-μm filter (Zartor); and adsorbed on an ANTI-FLAG M2-AGAROSE AFFINITY GEL (Sigma) column equilibrated with TBS buffer by a routine method. Subsequently, about 50 ml of the TBS buffer was used for washing the column. Then, 6 ml of […] glycine hydrochloride solution of pH 2.2 was passed through the column to obtain each 1 ml fraction. To the separated fractions, 100 μl of 1 M Tris-HCl of pH 8 was immediately added to adjust the pH. The individual fractions thus obtained were confirmed by Western blotting using an antibody against the FLAG tag added to the N terminus (mouse anti-FLAG monoclonal antibody M2; Sigma). Specifically, the eluted fractions were electrophoresed on SDS/4% to 20% acrylamide gel (Daiichi Pure Chemicals Co., Ltd.) (under reducing conditions) and then transferred on PVDF membrane (Millipore) using a blotting apparatus. After adding Block Ace (DAINIPPON PHARMACEUTICAL CO., LTD.) for blocking to the transferred PVDF membrane, a biotinylated mouse anti-FLAG monoclonal antibody (M2; Sigma) and horseradish peroxidase-labeled streptoavidin (Amersham Pharmacia) were sequentially reacted. After reaction, it was confirmed that which eluted fractions contained the protein, using ECL Western blotting detection system (Amersham Pharmacia).
Using a synthetic peptides which have the C terminus labeled wit MCA (4-methyl-coumaryl-7-amide) by the same method as in Example 8, the cleavage activity of the enzyme purified in Example 10 was detected. Unless otherwise described, the method described in a paper (Yasuoka, S. et al., Am. J. Respir. Cell Mol Biol., Vol. 16, 300-308, 1997) was used. Specifically, using a synthetic peptides (Peptide Institute, Inc.) which have the C terminus labeled with MCA as substrates, the substrates were diluted with ammonium hydrogen carbonate buffer to become a final concentration of 200 μM or 400 μM in a 96-well plate. After the purified protein solution obtained in Example 10 or the ammonium hydrogen carbonate buffer as a control was added to the substrate solutions, the resulting mixtures were incubated at 37° C. for one hour. Subsequently, the fluorescence of AMC (7-amino-4-methyl-coumarin) released from the synthetic peptide by enzymatic cleavage was measured at a wavelength of 460 nm for measurement, using an excitation wavelength of 390 nm with a fluorescent plate reader (SAFIRE manufactured by TECAN). In FIG. 1, the open bar expresses buffer control, while the solid bar expresses the case of using purified protein solution. The first bar represents the case of using Boc-Glu(OBzl)-Ala-Arg-MCA as a substrate; the second bar represents the case of using Boc-Phe-Ser-Arg-MCA as a substrate; the third bar represents the case of using Boc-Leu-Ser-Thr-Arg-MCA as a substrate; the fourth bar represents the case of using Boc-Gln-Arg-Arg-MCA as a substrate; the fifth bar represents the case of using Suc-Ala-Ala-Pro-Phe-MCA as a substrate; the sixth bar represents the case of using Suc-Ala-Pro-Ala-MCA as a substrate; the seventh bar represents the case of using Boc-Glu-Lys-Lys-MCA as a substrate; the eighth bar represents the case of using Boc-Leu-Lys-Arg-MCA as a substrate; the ninth bar represents the case of using Boc-Leu-Gly-Arg-MCA as a substrate; and the tenth bar represents the case of using Boc-Asp(OBzl)-Pro-Arg-MCA as a substrate.

[3] = target: T3, purified signal-FLAG-ARS-extracellular enzyme after the treatment with trypsin beads (Homo sapiens, UniProt Q7Z410, INS90FVSSFQKTELEASCVGCSVLNYRDGNSSVLVHFQ); experiment: Detection of enzyme activity using physiologically active peptides (HPLC); details: peptide 0.1 mM in 100 mM ammonium hydrogen carbonate pH 8, 37° C. for 16 hours; versus buffer control
T3 construct: FLAG (N); made in house; host or cells: HEK293-EBNA
T3 sequence (Q7Z410 with tags, fused parts or gaps): T1 sequence (Q7Z410 with tags, fused parts or gaps)
T3 sequence (Q7Z410 with tags, fused parts or gaps INS90FVSSFQKTELEASCVGCSVLNYRDGNSSVLVHFQ): T1 sequence (Q7Z410 with tags, fused parts or gaps INS90FVSSFQKTELEASCVGCSVLNYRDGNSSVLVHFQ)
Description: The purified signal-FLAG-ARS-extracellular enzyme after the treatment with trypsin beads in the same manner as in the method of Example 9 was used as an enzyme sample and was mixed with the following physiologically active peptides for reaction at 37° C. for 16 hours, to detect the enzyme activity. As a control without addition of enzyme, an ammonium hydrogen carbonate buffer was used. The peptides were adjusted to 0.1 mM in 100 mM ammonium hydrogen carbonate solution of pH 8. The peptides used were adenocorticotropic hormone (ACTH), angiotensin 1-13, angiotensin 1-14, angiotensin 1-7, angiotensin 1-9, angiotensin 3-7, angiotensin 3-8, angiotensin I, angiotensin II, angiotensin III, A-type natriuretic peptide (ANP), apelin 13, apelin 36, big gastrin, B-type natriuretic peptide 32 (BNP 32), bradykinin, benzoyl-Gly-His-Leu, chymostatin, C-type natriuretic peptide 22 (CNP 22), arginine-deficient bradykinin (Des-Arg-bradykinin), leucine-terminal enkephalin (Leu-enkephalin), methionine-terminal enkephalin (Met-enkephalin), growth hormone (GH), gastric inhibitory peptide (GIP), glucagon-like peptide 1 (GLP-1), glucagon-like peptide 2 (GLP-2), glucagon, growth hormone releasing factor (GRF), insulin, luteinizing hormone releasing hormone (LH-RH), melanin-concentrating hormone (MCH), α-melanocyte stimulating hormone (α-MSH), motilin, neurotensin, neuropeptide Y (NPY), oxytosin, pituitary adenylate cyclase activating polypeptide 38 (PACAP38), prolactin-releasing peptide (PrRP31), pyroglutamic apelin 13 (Pyr-apelin 13), secretin, somatostatin, substance P, [D-Argl, D-Pro2,D-Trp7,9, Leul1]-substance P, [D-Pro2,D-Trp7,9]-substance P, urotensin II, or vasoactive intestinal peptide (VIP) (all from Peptide Institute, Inc.). The cleavage of the substrate peptides was confirmed by analyzing and comparing the reaction of a sample with the enzyme solution to with that of a sample with added ammonium hydrogen carbonate buffer instead of the enzyme, by high-performance liquid chromatography (HPLC) (LC-10AS manufactured by Shimadzu Co., Ltd.).
TSK-gel ODS-80 Ts column, manufactured by TOSOH
Column temperature: 40° C.
Measurement wavelength: 220 nm
Compositions of solvent solutions
Solution A: 10 mM potassium dihydrogen phosphate buffer, pH 7.4 to 8.0
Solution B: mixture solution of 90% acetonitrile: 10% ultra-pure water

| Substance | cleavage of synthetic peptide by enzyme solution treated with trypsin beads (fluorescence of released AMC) [1] | cleavage of synthetic peptide by purified protein solution (fluorescence of released AMC) [2] | cleavage of physiologically active peptide by enzyme sample (HPLC) [3] |
| --- | --- | --- | --- |
| Boc-Leu-Gly-Arg-{AMC} | cleaved | cleaved |  |
| C-type natriuretic peptide 22 [CNP] |  |  | selectively cleaved |
| α-melanocyte stimulating hormone [α-MSH] |  |  | selectively cleaved |
| Boc-Leu-Ser-Thr-Arg-MCA (Boc-LSTR-{AMC}; SMILES Cc1cc(=O)oc2cc(NC(=O)[C@H](CCCNC(=N)N)NC(=O)[C@@H](NC(=O)[C@H](CO)NC(=O)[C@H](CC(C)C)NC(=O)OC(C)(C)C)[C@@H](C)O)ccc12) [synthetic peptide substrate labeled with MCA at the C terminus] | cleaved | cleaved |  |
| vasoactive intestinal peptide [VIP] |  |  | selectively cleaved |

Next, values leading:

| cleavage of synthetic peptide by enzyme solution treated with trypsin beads (fluorescence of released AMC) [1] | cleavage of synthetic peptide by purified protein solution (fluorescence of released AMC) [2] | cleavage of physiologically active peptide by enzyme sample (HPLC) [3] | Substance |
| --- | --- | --- | --- |
| cleaved | cleaved |  | Boc-Asp(OBn)-Pro-Arg-{AMC} |
|  |  | selectively cleaved | A-type natriuretic peptide [ANP] |
|  |  | selectively cleaved | neuropeptide Y [NPY] |
| cleaved | cleaved |  | Boc-Leu-Lys-Arg-{AMC} |
|  |  | selectively cleaved | melanin-concentrating hormone [MCH] |
| cleaved | cleaved |  | Boc-Glu-Lys-Lys-{AMC} |

Reference: US20060134719A1, “Novel serine protease” (priority 2002, published 2006)
